# Test results from patent US12616203B2, “Use of 3-isoxazolidinones compounds as selective herbicides” (FMC Corporation, priority 2014, dated 2026).
# Where two headings read alike, the source gives them in different places.
# What was measured:
# Italian ryegrass = assay: Ex36 POST 2,4-DC + metsulfuron-methyl, % control 28 DAT, Colby; type: in vivo, Lolium perenne L. ssp. multiflorum
# From the text: Crops screened were wheat and barley.
# Barley [1] = assay: Ex40 POST 2,4-DC + metsulfuron-methyl, crop injury 7 DAT; type: in vivo; details: POST
# Method: (§1) Treatments were applied to barley and wheat crops.
# (§2) Non-ionic surfactant (NIS) was added to all treatments at 0.5% v/v. All plant species were direct seeded into 3″ plastic pots using metro-mix as growth media. At treatment common lambsquarters was 1.75″, common chickweed was 2″, wild mustard was 2.25″, wild oat was 5.5″, wild buckwheat was 2-5″, Italian ryegrass was 2-3″, wheat was 5.5″ and barley was 4.5″ in height. Plants were watered well before application and not watered 24 h after application. Plants were watered and fertilized routinely after treatment application. Each treatment was replicated four times. Treated flats were placed in randomized block design in the greenhouse.
# wheat [2] = assay: as above; type: in vivo; details: POST
# Method: as §1, §2
# weeds; barley and wheat = assay: Ex40 POST greenhouse; type: in vivo; details: rate in the words
# Method: as §1, §2
# jimsonweed = assay: Ex15 PRE 2,4-DC + S-metolachlor, % control 28 DAT, Colby; type: in vivo, Datura stramonium
# From the text: (§3) The weeds tested in this study were redroot pigweed (Amaranthus retroflexus, AMARE), Jimsonweed (Datura stramonium, DATST), black nightshade (Solanum nigrum, SOLNI), large crabgrass (Digitaria sanguinalis, DIGSA), Pennsylvania smartweed (Polygonum pensylvanicum, POLPY), horseweed (Conyza canadensis, ERICA), wild buckwheat (Polygonum convolvulus, POLCO). The crop tested was Corn (var. Viking).
# (§4) To determine PRE efficacy and corn injury, five rates of each 2,4 DC (36.7% CS) and S-metolachlor (Dual II Magnum®, 82.4%) were applied either alone or as tank-mix. 2,4 DC was applied at 0, 125, 170, 210, or 250 g ai/ha and S-metolachlor was applied at 0, 267, 534, 801, or 1070 g ai/ha. Additional treatments included application of premix of pyroxasulfone plus fluthiacet-methyl (Anthem™ 23.3%) at 169.9 g ai/ha and tank-mix of mesotrione (Callisto®, 40%) at 123 g plus S-metolachlor at 1252 g. Treatments were applied just after the planting of large crabgrass, Jimsonweed, black nightshade, redroot pigweed, Pennsylvania smartweed, horseweed, wild buckwheat, and corn.
# (§5) Flats were watered and fertilized routinely after treatment application. Each treatment was replicated three times. […] Corn injury was rated for bleaching and stunting.
# Black nightshade = assay: as above; type: in vivo, Solanum nigrum
# From the text: as §3, §4, §5
# Pennsylvania smartweed = assay: as above; type: in vivo, Polygonum pensylvanicum
# From the text: as §3, §4, §5
# Wild buckwheat [3] = assay: as above; type: in vivo, Polygonum convolvulus
# From the text: as §3, §4, §5
# weeds [4] = assay: Ex10 PRE greenhouse; type: in vivo; details: 28 DAT, weed and rate in the words
# From the text: Treatments 1-12 of 2,4-DC and aclonifen tank-mix combinations follow same rates listed above. […] Sulfentrazone (Spartan 4F® 39.6%) at 280 g ai/ha, pendimethalin (Prowl 3.3®EC, 37.4%) at 784 g ai/ha, or S-metolachlor (Dual II Magnum® 82.4%) at 1084 g ai/ha were applied as commercial standards. Treatments were replicated 3 times and flats were watered after planting but before the treatment and lightly watered after treatment application. Thereafter flats were watered and fertilized routinely. […] Shepherd's-purse was rated at 21 and 28 DAT only, due to delayed emergence.
# [5] = system: weeds; Corn (var. Viking); assay: Ex15 PRE greenhouse; type: in vivo; details: rate in the words
# From the text: as §3, §4, §5
# weeds [6] = assay: Ex16 PRE greenhouse; type: in vivo; details: weed and rate in the words
# From the text: To determine PRE efficacy, five levels of 2,4 DC (36.7% CS) 0, 125, 170, 210, or 250 g ai/ha and five levels of pyroxasulfone (KIH485-85WG) 0, 50, 65, 80, or 95 g ai/ha were applied either alone or as tank-mix. Additional treatments consisted of premix of pyroxasulfone plus fluthiacet-methyl (Anthem™ 23.3%) at 169.9 g ai/ha, S-metolachlor (Dual II Magnum, 82.4%) at 1388 g, and tank-mix of mesotrione (Callisto, 40%) at 123 g plus S-metolachlor at 1252 g. […] Treatments were applied before the emergence of black nightshade, giant foxtail, green foxtail, yellow foxtail, large crabgrass, kochia, redroot pigweed, common ragweed, and barnyardgrass.
# Flats were watered and fertilized routinely after treatment application. Each treatment was replicated three times.
# weeds [7] = assay: Ex21 PRE greenhouse; type: in vivo; details: 28 DAT, weed and rate in the words
# From the text: 2,4 DC (36.7% CS) was applied PRE at 0, 125, 170, 210, or 250 g ai/ha alone or as a tank-mix with S-metolachlor (Dual II Magnum®, 82.4%) at 0, 267, 534, 801, or 1070 g ai/ha. Pyroxasulfone plus fluthiacet-methyl (Anthem™, 23.3%) applied at 169.9 g ai/ha, and the tank-mix of mesotrione (Callisto®, 40%) at 123 g plus S-metolachlor (Dual II Magnum®, 82.4%) at 1252 g were included as standards for comparison. […] Thereafter flats were watered and fertilized routinely. Each treatment was replicated three times.
# weeds [8] = assay: Ex22 PRE greenhouse; type: in vivo; details: 28 DAT, weed and rate in the words
# From the text: 2,4 DC (36.7% CS) was applied PRE at 0, 125, 170, 210, or 250 g ai/ha alone or as a tank-mix with S-metolachlor (Dual II Magnum®, 82.4%) at 0, 267, 534, 801, or 1070 g ai/ha. Pyroxasulfone plus fluthiacet-methyl (Anthem™, 23.3%) applied at 169.9 g ai/ha, and the tank-mix of mesotrione (Callisto®, 40%) at 123 g plus S-metolachlor (Dual II Magnum®, 82.4%) at 1252 g were included as a standards for comparison.
# Thereafter flats were watered and fertilized routinely. Each treatment was replicated three times.
# weeds; Corn = assay: Ex25 PRE greenhouse; type: in vivo; details: rate in the words
# From the text: The crop tested in this study was Corn.
# 2,4 DC-21 (36.7% CS) was applied PRE at 0, 125, 170, 210, or 250 g ai/ha alone or as a tank-mix with pyroxasulfone (KIH-485, 85% WP) at 0, 50, 65, 80, or 95 g ai/ha. Pyroxasulfone plus fluthiacet-methyl (Anthem™, 23.3%) applied at 169.9 g ai/ha, s-metolachlor (Dual II Magnum®, 82.4%) applied at 1389 g, and the tank-mix of mesotrione (Callisto®, 40%) at 123 g plus s-metolachlor (Dual II Magnum®, 82.4%) at 1252 g were included as a standards for comparison. […] Thereafter flats were watered and fertilized routinely.
# Barley [9] = type: in vivo; details: 14 DAT, POST
# Method: (§6) Treatments were applied to wheat and barley crops.
# (§7) Nonionic surfactant was added at 0.5% v/v in all treatments. Treatments were applied to wheat (5.5″), barley (5″), wild oat (5.5″), common chickweed (2″), wild buckwheat (3″), and common lambsquarters (2″). All plant species were direct seeded into 3″ plastic pots using metro-mix as growth media and pots were watered well before application and watered 24 h after application. Plants were watered and fertilized routinely after treatment application. Each treatment was replicated four times.
# wheat [10] = type: in vivo; details: 14 DAT, POST
# Method: as §6, §7
# weeds; Wheat and Barley = assay: Ex41 POST greenhouse; type: in vivo; details: rate in the words
# Method: as §6, §7
# Littleseed canarygrass = assay: Ex34 PRE 2,4-DC + napropamide, % control, Colby; type: in vivo, Phalaris minor; details: 28 DAT
# From the text: (§8) Thereafter flats were watered and fertilized routinely.
# Common lambsquarters = assay: Ex34 PRE 2,4-DC + napropamide, % control, Colby; type: in vivo, Chenopodium album; details: 28 DAT
# From the text: as §8
# Blackgrass = assay: Ex34 PRE 2,4-DC + napropamide, % control, Colby; type: in vivo, Alopecurus myosuroides; details: 28 DAT
# From the text: as §8
# Wild buckwheat [11] = assay: Ex34 PRE 2,4-DC + napropamide, % control, Colby; type: in vivo, Polygonum convolvulus; details: 28 DAT
# From the text: as §8
# Annual bluegrass = assay: Ex34 PRE 2,4-DC + napropamide, % control, Colby; type: in vivo, Poa annua; details: 28 DAT
# From the text: as §8
# weeds [12] = assay: Ex18 PRE greenhouse; type: in vivo; details: weed and rate in the words
# From the text: Additional treatments included application of metazachlor (Butisan®, 43.1%) at 750 g ai/ha, napropamide (Devrinol DF®, 50%) at 1260 g ai/ha, and dimethachlor (Teridox®, 48%) at 1000 g ai/ha. […] Treatments were applied just after the seeding of annual bluegrass, cheat, wild oat, quackgrass, field violet, blackgrass, littleseed canarygrass, silky windgrass, yellow foxtail, and goosegrass. […] Flats were watered and fertilized routinely after treatment application. Each treatment was replicated three times.
# weeds; canola = assay: Ex34 PRE greenhouse; type: in vivo; details: rate in the words
# From the text: as §8
# [13] = S-metolachlor alone 267 g ai/ha
# [14] = S-metolachlor alone 534 g ai/ha
# [15] = S-metolachlor alone 801 g ai/ha
# [16] = S-metolachlor alone 1070 g ai/ha
# [17] = thifensulfuron-methyl 50 g ai/ha
# [18] = thifensulfuron-methyl 75 g ai/ha
# [19] = thifensulfuron-methyl 100 g ai/ha
compound,measurement,setting,value
"COC(=O)c1ccccc1S(=O)(=O)NC(=O)Nc1nc(C)nc(OC)n1 [Metsulfuron-methyl, metsulfuron-methyl, reference compound]",Y,Italian ryegrass; metsulfuron-methyl alone 6 g ai/ha,6%
same,Y,Italian ryegrass; metsulfuron-methyl alone 9 g ai/ha,18%
same,Y,Italian ryegrass; metsulfuron-methyl alone 12 g ai/ha,16%
same,"Y (% crop injury, metsulfuron-methyl alone)",Barley [1]; metsulfuron-methyl 2 g ai/ha,5%
same,"Y (% crop injury, metsulfuron-methyl alone)",Barley [1]; metsulfuron-methyl 3 g ai/ha,7%
same,"Y (% crop injury, metsulfuron-methyl alone)",Barley [1]; metsulfuron-methyl 4 g ai/ha,9%
same,"Y (% crop injury, metsulfuron-methyl alone)",wheat [2]; metsulfuron-methyl 2 g ai/ha,1%
same,"Y (% crop injury, metsulfuron-methyl alone)",wheat [2]; metsulfuron-methyl 3 g ai/ha,0%
same,"Y (% crop injury, metsulfuron-methyl alone)",wheat [2]; metsulfuron-methyl 4 g ai/ha,2%
same,weed control / crop safety in words,weeds; barley and wheat,"alone controlled wild buckwheat, common chickweed, wild mustard, and common lambsquarters at all rates and was safe on both crops at all rates"
"CCc1cccc(C)c1N(C(=O)CCl)[C@@H](C)COC [S-metolachlor, reference compound]",Y,jimsonweed; [13],17%
same,Y,jimsonweed; [14],17%
same,Y,jimsonweed; [15],23%
same,Y,jimsonweed; [16],28%
same,Y,Black nightshade; [13],46%
same,Y,Black nightshade; [14],85%
same,Y,Black nightshade; [15],90%
same,Y,Black nightshade; [16],95%
same,Y,Pennsylvania smartweed; [13],75%
same,Y,Pennsylvania smartweed; [14],95%
same,Y,Pennsylvania smartweed; [15],100%
same,Y,Pennsylvania smartweed; [16],100%
same,Y,Wild buckwheat [3]; [13],33%
same,Y,Wild buckwheat [3]; [14],65%
same,Y,Wild buckwheat [3]; [15],82%
same,Y,Wild buckwheat [3]; [16],85%
same,weed control in words,weeds [4],at 1064 g controlled only two weeds
same,weed control / crop safety in words,[5],alone gave control of all species at different rates except Jimsonweed
same,weed control in words,weeds [6],"controlled black nightshade, redroot pigweed, barnyardgrass, large crabgrass, and all three foxtail species"
same,weed control in words,weeds [7],"applied alone controlled yellow foxtail, green foxtail, and barnyardgrass at all rates, quackgrass or common chickweed at ≥534 g, and common lambsquarters at ≥801 g"
same,weed control in words,weeds [8],"applied alone controlled Johnsongrass and goosegrass at all rates and controlled Benghal dayflower, prickly sida and common lambsquarters at 801 g"
same,weed control / crop safety in words,weeds; Corn,controlled only black nightshade and also caused severe stunting to corn
"COC(=O)c1sccc1S(=O)(=O)NC(=O)Nc1nc(C)nc(OC)n1 [Thifensulfuron-methyl, thifensulfuron-methyl, reference compound]",% crop injury for Thifensulfuron-M alone,Barley [9]; [17],2%
same,% crop injury for Thifensulfuron-M alone,Barley [9]; [18],2%
same,% crop injury for Thifensulfuron-M alone,Barley [9]; [19],2%
same,% crop injury for Thifensulfuron-M alone,wheat [10]; [17],0%
same,% crop injury for Thifensulfuron-M alone,wheat [10]; [18],0%
same,% crop injury for Thifensulfuron-M alone,wheat [10]; [19],1%
same,weed control / crop safety in words,weeds; Wheat and Barley,"alone controlled all weeds except wild oat, and was safe on both crops"
"CCN(CC)C(=O)C(C)Oc1cccc2ccccc12 (centres unmarked) [napropamide, reference compound]",Y,Littleseed canarygrass; Napropamide alone 315 g ai/ha,50%
same,Y,Littleseed canarygrass; Napropamide alone 630 g ai/ha,87%
same,Y,Littleseed canarygrass; Napropamide alone 1260 g ai/ha,100%
same,Y,Common lambsquarters; Napropamide alone 315 g ai/ha,50%
same,Y,Common lambsquarters; Napropamide alone 630 g ai/ha,73%
same,Y,Common lambsquarters; Napropamide alone 1260 g ai/ha,91%
same,Y,Blackgrass; Napropamide alone 315 g ai/ha,5%
same,Y,Blackgrass; Napropamide alone 630 g ai/ha,7%
same,Y,Blackgrass; Napropamide alone 1260 g ai/ha,15%
same,Y,Wild buckwheat [11]; Napropamide alone 315 g ai/ha,23%
same,Y,Wild buckwheat [11]; Napropamide alone 630 g ai/ha,23%
same,Y,Wild buckwheat [11]; Napropamide alone 1260 g ai/ha,38%
same,Y,Annual bluegrass; Napropamide alone 315 g ai/ha,1%
same,Y,Annual bluegrass; Napropamide alone 630 g ai/ha,77%
same,Y,Annual bluegrass; Napropamide alone 1260 g ai/ha,92%
same,weed control in words,weeds [12],controlled all weeds except blackgrass
same,weed control / crop safety in words,weeds; canola,"alone at 630 g controlled littleseed canarygrass, at 1260 g controlled common lambsquarters, annual bluegrass and Italian ryegrass and was safe on canola at all rates"
